Source: patent publication US9624247B2, “Pyrazolo-pyrrolidin-4-one derivatives as bet inhibitors and their use in the treatment of disease” (NOVARTIS AG, priority 2013, dated 2017)

Tests used:
BRD4 (His-Brd4(44-477)) = BRD4 (His-Brd4(44-477)) (Homo sapiens (Human), UniProt O60885); test: TR-FRET in-vitro binding assay for BRD4; conditions: acetyl-histone H4 peptide
BRD2 (His-Brd2(60-472)) = BRD2 (His-Brd2(60-472)) (Homo sapiens (Human), UniProt P25440); test: TR-FRET in-vitro binding assay for BRD2; conditions: acetyl-histone H4 peptide
[1] = target: CREBBP bromodomain (His-CREBBP(1081-1197)) (Homo sapiens (Human), UniProt Q92793); test: AlphaScreen in-vitro binding assay for CREBBP; conditions: AlphaScreen, acetyl-histone H4 peptide; read-out: CREBBP IC50
[2] = target: nuclear BRD4-NUT foci in HCC2494 NUT midline carcinoma cells (Homo sapiens (Human), UniProt O60885+Q86Y26); test: Nut-foci formation assay (HCS); type: cell-based; conditions: 24 hours, NUT-foci immunofluorescence
Description: HCC2494 NUT midline carcinoma cells (expressing BRD4-NUT-fusion) were obtained from the University of Texas Southwestern and cultured in RPMI-1640 medium containing 10% Foetal Calf Serum at 37° C. in a humidified 5% CO2 incubator.
Compound-mediated inhibition of BRD4 activity was monitored by quantification of the number and intensity of nuclear BRD4-NUT foci using automated immunofluorescence microscopy. Briefly, 5000 cells in 20 μl fresh medium were seeded into Poly-D-Lysine-precoated 384-well plates and incubated overnight at 37° C. and 5% CO2, followed by addition of 5 μl medium containing compound dilutions at 5-fold their final intended concentration. Dose-response effects were assessed by 3-fold serial dilutions of the test compound, starting at 10 μM. Following incubation of the cells for 24 hours at 37° C. and 5% CO2, the cells were fixed by incubation with 3.7% formaldehyde for 10 min, followed by immunofluorescence staining using rabbit anti-NUT (Cell Signaling Technologies, Cat#3625) as primary, and AlexaFluor488-labeled goat anti-rabbit (Invitrogen, Cat#A11008) as secondary antibody (latter complemented with 1 μg/mL Hoechst33342 as DNA dye). Assay plates were imaged using the appropriate filter sets on the Cellomics VTi automated fluorescence microscopy platform (ThermoFisher Scientific) and the population average of the number of NUT-foci per nucleus is quantified using the Cellomics Spot Detection BioApplication image analysis algorithm (ThermoFisher Scientific). The effect of a particular test compound concentration on NUT-foci number and intensity is expressed as percentage of the value obtained for cells treated with vehicle only (DMSO, 0.1% final concentration), which was set as 100. Compound concentrations leading to half-maximal (IC50) inhibition of the aforementioned readout parameters were determined using standard four parameter curve fitting.

Sequence of CREBBP bromodomain (His-CREBBP(1081-1197)) (Q92793 1081-1197): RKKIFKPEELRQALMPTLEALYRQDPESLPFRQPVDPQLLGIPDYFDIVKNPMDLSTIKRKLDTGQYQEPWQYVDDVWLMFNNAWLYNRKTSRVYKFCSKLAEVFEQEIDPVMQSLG
Sequence of BRD2 (His-Brd2(60-472)) (P25440 60-472): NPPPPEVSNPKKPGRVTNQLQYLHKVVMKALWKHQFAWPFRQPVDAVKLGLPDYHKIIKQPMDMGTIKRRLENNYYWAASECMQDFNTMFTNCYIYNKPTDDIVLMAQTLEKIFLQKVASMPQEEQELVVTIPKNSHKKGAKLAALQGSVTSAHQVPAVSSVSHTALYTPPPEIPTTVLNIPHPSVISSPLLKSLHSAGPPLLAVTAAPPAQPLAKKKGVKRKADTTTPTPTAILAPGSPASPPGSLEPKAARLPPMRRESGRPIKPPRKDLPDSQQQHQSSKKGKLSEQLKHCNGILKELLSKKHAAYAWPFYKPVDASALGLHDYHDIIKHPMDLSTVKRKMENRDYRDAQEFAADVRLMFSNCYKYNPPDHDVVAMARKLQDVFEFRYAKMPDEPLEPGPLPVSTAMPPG

Row | Structure (SMILES) | IC50 (BRD4 (His-Brd4(44-477))) [nM] | IC50 (BRD2 (His-Brd2(60-472))) [nM] | IC50 [1] [nM] | IC50 [2] [nM]
1 | COCCn1nc(C2CC2)c2c1C(c1ccc(Cl)cc1)N(c1cc(C)c3nnc(CF)n3c1)C2=O (stereo not shown) [Example 18, 6-(4-chlorophenyl)-3-cyclopropyl-5-(3-(fluoromethyl)-8-methyl-[1,2,4]triazolo[4,3-a]-pyridin-6-yl)-1-(2-methoxyethyl)-5,6-dihydropyrrolo[3,4-c]pyrazol-4(1H)-one] | 25 | 33 | > 37000 | 3.65
2 | Cc1cc(N2C(=O)c3c(C4CC4)nn(C)c3[C@H]2c2ccc(Cl)cc2)cn2c(C)nnc12 [Example 2, (R)-6-(4-chlorophenyl)-3-cyclopropyl-5-(3,8-dimethyl-[1,2,4]triazolo[4,3-a]pyridin-6-yl)-1-methyl-5,6-dihydropyrrolo[3,4-c]pyrazol-4(1H)-one] | < 11 | 11 | 6000 | 4.71
3 | COc1cc(N2C(=O)c3c(C4CC4)nn(C)c3C2c2ccc(Cl)cc2)cn2c(C)nnc12 (racemic) [Example 5, 6-(4-chlorophenyl)-3-cyclopropyl-5-(8-methoxy-3-methyl-[1,2,4]triazolo[4,3-a]pyridin-6-yl)-1-methyl-5,6-dihydropyrrolo[3,4-c]pyrazol-4(1H)-one] | 28 | 54 | > 37000 | 36
4 | Cc1cc(N2C(=O)c3c(C4CC4)nn(C)c3C2c2ccc(Cl)cc2)cn2c(C(F)F)nnc12 (racemic) [Example 3, 6-(4-chlorophenyl)-3-cyclopropyl-5-(3-(difluoromethyl)-8-methyl-[1,2,4]triazolo[4,3-a]pyridin-6-yl)-1-methyl-5,6-dihydropyrrolo[3,4-c]pyrazol-4(1H)-one] | < 11 | 13 | > 37000 | 8.27
5 | COCCn1nc(C2CC2)c2c1C(c1ccc(Cl)cc1)N(c1cc(C)c3nnc(C)n3c1)C2=O (racemic) [Example 4, 6-(4-chlorophenyl)-3-cyclopropyl-5-(3,8-dimethyl-[1,2,4]triazolo[4,3-a]pyridin-6-yl)-1-(2-methoxyethyl)-5,6-dihydropyrrolo[3,4-c]pyrazol-4(1H)-one] | < 11 | 17 | 7300 | 9.04
6 | COc1cc(N2C(=O)c3c(C4CC4)nn(C)c3C2c2ccc(Cl)cc2)cc2c1nnn2C (stereo not shown) [Example 6] | 22 | 38 | 21600 | 54.8
7 | Cc1nnc2c(NC(=O)OC(C)(C)C)cc(N3C(=O)c4c(C5CC5)nn(C)c4C3c3ccc(Cl)cc3)cn12 (stereo not shown) [Example 27, tert-butyl (6-(6-(4-chlorophenyl)-3-cyclopropyl-1-methyl-4-oxopyrrolo[3,4-c]pyrazol-5(1H,4H,6H)-yl)-3-methyl-[1,2,4]triazolo[4,3-a]pyridin-8-yl)carbamate] | 36 | 47 | 8100 | 22.4
8 | Cc1cc(N2C(=O)c3c(C4CC4)nn(C)c3C2c2ccc(Cl)cc2)cn2c(C)nnc12 (stereo not shown) [Example 1, 6-(4-chlorophenyl)-3-cyclopropyl-5-(3,8-dimethyl-[1,2,4]triazolo[4,3-a]pyridin-6-yl)-1-methyl-5,6-dihydropyrrolo[3,4-c]pyrazol-4(1H)-one] | 24 | 29 | 11400 | 16.2
9 | CCOC(=O)Nc1cc(N2C(=O)c3c(C4CC4)nn(C)c3C2c2ccc(Cl)cc2)cn2c(C)nnc12 (stereo not shown) [Example 29, ethyl (6-(6-(4-chlorophenyl)-3-cyclopropyl-1-methyl-4-oxopyrrolo[3,4-c]pyrazol-5-(1H,4H,6H)-yl)-3-methyl-[1,2,4]triazolo[4,3-a]pyridin-8-yl)carbamate] | 23 | 23 |  | 2.2
10 | Cc1cc(N2C(=O)c3c(C4CC4)nn(C)c3C2c2ccc(Cl)cc2)cn2c(CF)nnc12 (racemic) [Example 16, 6-(4-chlorophenyl)-3-cyclopropyl-5-(3-(fluoromethyl)-8-methyl-[1,2,4]triazolo[4,3-a]-pyridin-6-yl)-1-methyl-5,6-dihydropyrrolo[3,4-c]pyrazol-4(1H)-one] | 15 | 16 | > 37000 | 12.1
11 | Cc1cc(N2C(=O)c3c(C4CC4)nn(C)c3[C@H]2c2ccc(Cl)cc2)cn2c(C(F)F)nnc12 [Example 7, (R)-6-(4-chlorophenyl)-3-cyclopropyl-5-(3-(difluoromethyl)-8-methyl-[1,2,4]triazolo-[4,3-a]pyridin-6-yl)-1-methyl-5,6-dihydropyrrolo[3,4-c]pyrazol-4(1H)-one] | < 11 | 13 | > 37000 | 2.14
